“Also recorded” adds a separate entry of the source. Positions of bridges follow the written chain, without caps; N, C: chain ends. Non-standard residues stand in square brackets, D forms with d. Residues, ends and D or L forms follow the SMILES beside them.
Legend:
T84 cells = test: cyclic GMP and cyclic AMP production in T84 cells; type: cell-based, human; details: 0.01, 0.1, 1, or 10 μM SP-333
Protocol: FIG. 3A-B is a series of graphs showing that SP-333 stimulates cyclic GMP, but not cyclic AMP production in T84 cells. Cells were treated with either control, IBMX, SP-333 ([…]), forskolin (FSK) or FSK+IBMX.
The results are depicted in FIG. 3A-B. T84 cells were treated with either control, IBMX, forskolin (FSK), or 0.01, 0.1, 1, or 10 μM SP-333, and the production of cGMP or cAMP measured (pmoles/well). CPT-cGMP and CPT-cAMP both stimulate Isc across T84 cell monolayers.

[1] = system: female Sprague-Dawley CD rats; test: methadone-induced constipation in rats (fecal output); type: in vivo, rat
Protocol: To identify the methadone dose that induces constipation in rats, female Sprague-Dawley CD rats 7 to 8 weeks of age (n=6/group) were administered 0 (vehicle), 2.5, 5, and 7.5 mg/kg of methadone (1.5 ml/kg dose volume) by IP injection once a day for 5 days. Fecal pellets were collected at 4 h intervals during the light cycle and average number of pellets was recorded for each group during the course of the study following daily dose administrations of methadone.
To evaluate the ability of SP-333 to relieve methadone-induced constipation, female Sprague-Dawley CD rats 7 to 8 weeks of age (n=7/group) were administered 5 mg/kg of methadone (or vehicle) each day for 7 days via IP injection to induce constipation. Ten minutes following the IP dose each day, an oral gavage of 2.5, and 5 mg/kg of SP-333 or vehicle (buffer) was administered. Fecal pellets were collected at 4 h intervals during the light cycle and average number of pellets recorded for each group during the course of the study following daily administration of vehicle, methadone or combination of methadone and SP-333.

[2] = system: female Sprague-Dawley CD rats; test: as above; type: in vivo, rat; details: methadone 2.5 mg/kg IP daily 9 days; SP-333 2.5, 5.0 and 10 mg/kg oral daily

CC(C)C[C@@H]1NC(=O)[C@H](CCC(=O)O)NC(=O)[C@@H](NC(=O)[C@H](CCC(=O)O)NC(=O)[C@H](CC(=O)O)NC(=O)[C@H](N)CC(N)=O)CSSC[C@@H]2NC(=O)[C@H](C)NC(=O)[C@H](C(C)C)NC(=O)[C@H](CC(N)=O)NC(=O)[C@H](C(C)C)NC(=O)[C@H](CSSC[C@@H](C(=O)N[C@H](CC(C)C)C(=O)O)NC(=O)CNC(=O)[C@H]([C@@H](C)O)NC2=O)NC1=O [SP-333, dAsn^1-Asp^2-Glu^3-Cys^4-Glu^5-Leu^6-Cys^7-Val^8-Asn^9-Val^10-Ala^11-Cys^12-Thr^13-Gly^14-Cys^15-dLeu^16] (H-[dN]DECELCVNVACTGC[dL]-OH; disulfide 4-12, 7-15)
cAMP production (T84 cells): not cAMP synthesis; also recorded: does not result in an increase of cAMP production | cGMP production (T84 cells): stimulates cGMP synthesis; also recorded: concentration dependent increase in cGMP levels | pellet count compared to the methadone dosed group ([1]; SP-333 2.5 mg/kg oral daily 10 min after methadone (5 mg/kg 7 days, then 2.5 mg/kg days 8-16)): threefold increase; also recorded: significantly relieved methadone-induced constipation | average number of pellets / fecal output compared to the methadone dosed group ([1]; SP-333 2.5 and 5 mg/kg oral daily after methadone (5 mg/kg 7 days, then 2.5 mg/kg days 8-16)): partially restored fecal output; also recorded: higher compared to the methadone dosed group | average number of pellets compared to the methadone dosed group [2]: higher compared to the methadone dosed group
